Experimental data taken from ChEMBL document CHEMBL3526033, “Identification of human liver cytochrome P450 enzymes involved in the metabolism of SCH 530348 (Vorapaxar), a potent oral thrombin protease-activated receptor 1 antagonist” (Drug Metab Dispos, 2011).
Blank lines part the entries; values can stand above or below the compound they belong to.

How the values were obtained:
Cytochrome P450 3A5 = Cytochrome P450 3A5 (Homo sapiens, UniProt P20815); assay: Activity of human recombinant CYP3A5 assessed as enzyme-mediated (3R,3aS,4S,4aR,7R,8aR,9aR)-7-amino-4-((E)-2-(5-(3-fluorophenyl)pyridin-2-yl)vinyl)-3-methyldecahydronaphtho[2,3-c]furan-1(3H)-one formation at 25 uM after 120 mins by LC-MS/MS analysis in presence of NADPH; format: ADME; settings: 2 h
Cytochrome P450 1A1 [1] = target: T1, Cytochrome P450 1A1 (Homo sapiens, UniProt P04798); assay: Activity of human recombinant CYP1A1 assessed as enzyme-mediated 2-hydroxyethyl (1R,3aR,4aR,6R,8aR,9S,9aS)-9-((E)-2-(5-(3-fluorophenyl)pyridin-2-yl)vinyl)-1-methyl-3-oxododecahydronaphtho[2,3-c]furan-6-ylcarbamate formation at 25 uM after 120 mins by LC-MS/MS analysis in presence of NADPH; format: ADME; settings: 2 h
T1 sequence (P04798 whole entry): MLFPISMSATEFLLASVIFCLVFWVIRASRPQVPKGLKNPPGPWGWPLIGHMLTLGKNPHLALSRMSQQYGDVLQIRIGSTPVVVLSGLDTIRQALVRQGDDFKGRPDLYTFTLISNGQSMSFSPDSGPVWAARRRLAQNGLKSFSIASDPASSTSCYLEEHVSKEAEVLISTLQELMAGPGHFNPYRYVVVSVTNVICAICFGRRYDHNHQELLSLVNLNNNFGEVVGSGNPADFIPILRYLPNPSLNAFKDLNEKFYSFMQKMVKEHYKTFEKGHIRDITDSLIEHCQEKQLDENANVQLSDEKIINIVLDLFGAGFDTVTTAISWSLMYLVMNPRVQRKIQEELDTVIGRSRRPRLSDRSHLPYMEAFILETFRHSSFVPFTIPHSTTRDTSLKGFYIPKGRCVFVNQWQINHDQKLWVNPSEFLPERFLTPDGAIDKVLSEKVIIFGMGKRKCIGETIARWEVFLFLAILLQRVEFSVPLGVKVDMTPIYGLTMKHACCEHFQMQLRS

[2] = Drug metabolism in human liver S9 fraction assessed as (3R,3aS,4S,4aR,7R,8aR,9aR)-7-amino-4-((E)-2-(5-(3-fluorophenyl)pyridin-2-yl)vinyl)-3-methyldecahydronaphtho[2,3-c]furan-1(3H)-one formation at 10 uM after 120 mins by LC-MS/MS analysis; format: ADME, subcellular; settings: s9, 2 h
Cytochrome P450 1A2 = target: T2, Cytochrome P450 1A2 (Homo sapiens, UniProt P05177); assay: Activity of human recombinant CYP1A2 assessed as enzyme-mediated drug metabolism at 10 uM after 120 mins by LC-MS/MS analysis; format: ADME; settings: 2 h
T2 sequence (P05177 whole entry): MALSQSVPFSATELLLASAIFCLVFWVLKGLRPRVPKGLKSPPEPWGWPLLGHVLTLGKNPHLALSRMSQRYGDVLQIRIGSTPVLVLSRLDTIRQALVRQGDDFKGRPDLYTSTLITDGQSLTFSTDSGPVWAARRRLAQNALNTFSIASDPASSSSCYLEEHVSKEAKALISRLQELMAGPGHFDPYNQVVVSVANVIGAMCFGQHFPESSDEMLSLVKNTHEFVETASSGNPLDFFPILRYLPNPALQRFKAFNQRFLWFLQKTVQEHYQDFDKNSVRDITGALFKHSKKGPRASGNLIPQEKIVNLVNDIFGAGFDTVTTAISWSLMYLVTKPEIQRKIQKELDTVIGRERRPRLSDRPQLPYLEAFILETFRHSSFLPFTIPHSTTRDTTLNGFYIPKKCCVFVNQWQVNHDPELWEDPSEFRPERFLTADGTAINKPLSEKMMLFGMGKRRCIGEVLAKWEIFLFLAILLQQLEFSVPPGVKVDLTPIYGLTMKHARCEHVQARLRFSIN

Cytochrome P450 2D6 = Cytochrome P450 2D6 (Homo sapiens, UniProt P10635); assay: Activity of human recombinant CYP2D6 assessed as enzyme-mediated drug metabolism at 10 uM after 120 mins by LC-MS/MS analysis; format: ADME; settings: 2 h
Cytochrome P450 1A1 [3] = target: T1, Cytochrome P450 1A1; assay: Activity of human recombinant CYP1A1 assessed as enzyme-mediated drug metabolism treated with 25 uM vorapaxar after 120 mins by LC-MS/MS analysis in presence of NADPH; format: ADME; settings: 2 h
Cytochrome P450 2B6 = target: T3, Cytochrome P450 2B6 (Homo sapiens, UniProt P20813); assay: Activity of human recombinant CYP2B6 assessed as enzyme-mediated drug metabolism treated with 25 uM vorapaxar after 120 mins by LC-MS/MS analysis in presence of NADPH; format: ADME; settings: 2 h
T3 sequence (P20813 whole entry): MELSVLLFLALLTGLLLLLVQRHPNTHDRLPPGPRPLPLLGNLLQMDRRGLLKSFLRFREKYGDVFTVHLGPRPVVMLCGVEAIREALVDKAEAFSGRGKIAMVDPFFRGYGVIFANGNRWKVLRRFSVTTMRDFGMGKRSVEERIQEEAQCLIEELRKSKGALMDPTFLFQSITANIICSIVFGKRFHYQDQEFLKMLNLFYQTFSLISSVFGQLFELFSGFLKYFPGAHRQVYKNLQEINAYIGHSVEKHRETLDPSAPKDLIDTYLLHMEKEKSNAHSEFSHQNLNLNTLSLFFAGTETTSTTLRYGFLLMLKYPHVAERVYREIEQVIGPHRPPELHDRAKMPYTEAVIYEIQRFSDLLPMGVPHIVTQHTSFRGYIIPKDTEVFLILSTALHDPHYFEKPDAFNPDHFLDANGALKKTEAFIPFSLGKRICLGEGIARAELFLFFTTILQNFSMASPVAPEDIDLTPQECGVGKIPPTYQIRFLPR

Liver microsome = assay: Drug metabolism in human liver microsomes assessed as (3R,3aS,4S,4aR,7R,8aR,9aR)-7-amino-4-((E)-2-(5-(3-fluorophenyl)pyridin-2-yl)vinyl)-3-methyldecahydronaphtho[2,3-c]furan-1(3H)-one formation at 10 to 25 uM after 120 mins by LC-MS/MS analysis in presence of alpha-napthoflavone; format: ADME; settings: 2 h

Chain of Cytochrome P450 3A5 (P20815 whole entry): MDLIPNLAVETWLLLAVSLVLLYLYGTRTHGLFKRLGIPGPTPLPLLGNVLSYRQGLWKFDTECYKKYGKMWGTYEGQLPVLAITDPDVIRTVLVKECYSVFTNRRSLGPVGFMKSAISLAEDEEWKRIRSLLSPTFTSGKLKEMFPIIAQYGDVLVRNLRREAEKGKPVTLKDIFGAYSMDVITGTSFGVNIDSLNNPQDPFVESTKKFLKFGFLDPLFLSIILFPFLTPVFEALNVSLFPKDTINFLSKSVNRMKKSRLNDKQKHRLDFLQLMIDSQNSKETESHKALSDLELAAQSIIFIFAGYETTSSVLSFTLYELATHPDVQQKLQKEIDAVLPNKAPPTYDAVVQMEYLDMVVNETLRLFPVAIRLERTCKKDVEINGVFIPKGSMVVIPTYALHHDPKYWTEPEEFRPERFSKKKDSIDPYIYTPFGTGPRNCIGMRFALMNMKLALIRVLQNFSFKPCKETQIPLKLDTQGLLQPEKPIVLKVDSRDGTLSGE
Chain of Cytochrome P450 2D6 (P10635 whole entry): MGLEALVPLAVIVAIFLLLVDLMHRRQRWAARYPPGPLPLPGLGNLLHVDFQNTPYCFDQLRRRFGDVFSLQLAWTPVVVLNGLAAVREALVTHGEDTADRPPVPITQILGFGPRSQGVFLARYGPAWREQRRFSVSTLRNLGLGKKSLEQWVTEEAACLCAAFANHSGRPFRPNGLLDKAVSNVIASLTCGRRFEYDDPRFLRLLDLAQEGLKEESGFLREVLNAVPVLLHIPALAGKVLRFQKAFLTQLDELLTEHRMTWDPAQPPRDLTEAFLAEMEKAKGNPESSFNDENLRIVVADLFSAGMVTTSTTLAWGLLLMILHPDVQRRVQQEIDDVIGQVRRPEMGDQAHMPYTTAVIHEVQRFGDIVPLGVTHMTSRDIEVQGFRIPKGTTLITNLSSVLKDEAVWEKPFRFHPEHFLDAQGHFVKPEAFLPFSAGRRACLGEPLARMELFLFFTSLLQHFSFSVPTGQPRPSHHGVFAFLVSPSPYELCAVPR

- Drug metabolism (Cytochrome P450 3A5): metabolite_detected
- Drug metabolism (Cytochrome P450 1A1 [1]): metabolite_detected
- Drug metabolism [2]: metabolite_not_detected
- Drug metabolism (Cytochrome P450 1A2): metabolite_not_detected
- Drug metabolism (Cytochrome P450 2D6): metabolite_not_detected
Compound: CCOC(=O)N[C@@H]1CC[C@@H]2[C@@H](C1)C[C@H]1C(=O)O[C@H](C)[C@H]1[C@H]2/C=[14CH]/c1ccc(-c2cccc(F)c2)cn1

- Drug metabolism (Cytochrome P450 1A1 [3]): metabolite_detected
- Drug metabolism (Cytochrome P450 2B6): metabolite_detected
Compound: C[C@H]1OC(=O)[C@@H]2C[C@@H]3C[C@H](NC(=O)OCCO)CC[C@H]3[C@H](/C=C/c3ccc(-c4cccc(F)c4)cn3)[C@H]12

- Drug metabolism (Liver microsome): metabolite_detected
Compound: CCOC(=O)N[C@@H]1CC[C@@H]2[C@@H](C1)C[C@H]1C(=O)O[C@H](C)[C@H]1[C@H]2/C=C/c1ccc(-c2cccc(F)c2)cn1 [VORAPAXAR]
